The source of these data is patent US20240245682A1, “ALPHA-V-BETA-8 INTEGRIN INHIBITORS AND USES THEREOF” (Pliant Therapeutics, Inc., priority 2022, published 2024).

Holding throughout (assay): AlphaScreen proximity-based integrin binding assay with TGF-b1 LAP
Holding throughout (settings): values given as ranges
On the technique in general: In Alpha technology, singlet oxygen from a donor bead excites a nearby acceptor bead.

One assay concerns the target human integrin αVβ1 (Homo sapiens, UniProt P05556+P06756). How it is done:
(§1) The biochemical potency of the disclosed compounds was determined using the AlphaScreen® (Perkin Elmer, Waltham, MA) proximity-based assay as described previously (Ullman E F et al., Luminescent oxygen channeling immunoassay: Measurement of particle binding kinetics by chemiluminescence. Proc. Natl. Acad. Sci. USA, Vol. 91, pp. 5426-5430, June 1994, herein incorporated by reference in its entirety). To gauge the potency of inhibitors of binding to each of human integrins αVβ1, αVβ6, and αVβ8, inhibitor compounds were independently incubated with one of αVβ1, αVβ6, or αVβ8, together with TGF-b1 LAP and biotinylated anti-LAP antibody plus acceptor and donor beads, following the manufacture's recommendations. The donor beads were coated with streptavidin. […] All incubations occurred at room temperatures in 50 mM Tris-HCl, pH 7.5, 0.1% BSA supplemented with 1 mM each CaCl2 and MgCl2.
(§2) The order of reagent addition was as follows:
(§3) 1. αVβ1, αVβ6, or αVβ8 integrin, test inhibitor compound, LAP, biotinylated anti-LAP antibody and acceptor beads were all added together.
(§4) 2. After 2 hours, donor beads were added. After another 30 minute incubation, samples were then read.
(§5) Integrin binding was evaluated by exciting donor beads at 680 nm, and measuring the fluorescent signal produced, between 520-620 nm, using a Biotek Instruments (Winooski, VT, USA) SynergyNeo2 multimode plate reader. Compound potency was assessed by determining inhibitor concentrations required to reduce fluorescent light output by 50%. Data analysis for IC50 determinations was carried out by nonlinear four parameter logistic regression analysis using Dotmatics ELN Software (Core Informatics Inc., Branford, Ct). […] Comp #in the Table and Examples below refers to the compound of the corresponding Example number as described in the Synthetic Examples.

In a further assay the target is human integrin αVβ8 (Homo sapiens, UniProt P06756+P26012). How it is done:
as §1, §2, §3, §4, §5

Another assay concerns the target human integrin αVβ6 (Homo sapiens, UniProt P06756+P18564). How it is done: as §1, §2, §3, §4, §5

The structures appear in SMILES notation.

Chain of human integrin αVβ1 (P06756 31-992 limits assumed): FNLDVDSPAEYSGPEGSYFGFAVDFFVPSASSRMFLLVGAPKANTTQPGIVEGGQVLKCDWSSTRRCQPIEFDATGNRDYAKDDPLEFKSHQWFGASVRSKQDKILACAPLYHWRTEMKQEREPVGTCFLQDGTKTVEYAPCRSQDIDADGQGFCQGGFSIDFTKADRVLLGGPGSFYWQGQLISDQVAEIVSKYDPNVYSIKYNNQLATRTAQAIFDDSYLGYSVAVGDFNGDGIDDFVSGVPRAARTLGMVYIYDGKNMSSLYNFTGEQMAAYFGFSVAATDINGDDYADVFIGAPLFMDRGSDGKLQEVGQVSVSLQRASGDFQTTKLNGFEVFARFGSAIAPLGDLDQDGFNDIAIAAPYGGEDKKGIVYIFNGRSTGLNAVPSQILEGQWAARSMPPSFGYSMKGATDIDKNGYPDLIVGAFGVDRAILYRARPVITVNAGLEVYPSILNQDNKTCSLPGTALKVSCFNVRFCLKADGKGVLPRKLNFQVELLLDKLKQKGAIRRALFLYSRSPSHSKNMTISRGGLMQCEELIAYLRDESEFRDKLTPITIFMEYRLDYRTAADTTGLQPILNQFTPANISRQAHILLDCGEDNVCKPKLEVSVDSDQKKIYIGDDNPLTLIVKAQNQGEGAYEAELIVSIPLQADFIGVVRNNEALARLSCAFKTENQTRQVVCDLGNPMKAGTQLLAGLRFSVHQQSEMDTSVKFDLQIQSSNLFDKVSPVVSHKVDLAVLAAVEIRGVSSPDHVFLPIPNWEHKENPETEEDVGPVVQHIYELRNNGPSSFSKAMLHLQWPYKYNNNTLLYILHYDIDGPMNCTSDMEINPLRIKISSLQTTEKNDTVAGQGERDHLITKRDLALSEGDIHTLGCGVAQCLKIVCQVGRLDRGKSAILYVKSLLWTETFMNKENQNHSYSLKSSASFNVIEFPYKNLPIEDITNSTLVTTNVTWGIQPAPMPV
Chain of human integrin αVβ1 (P05556 21-728 limits assumed): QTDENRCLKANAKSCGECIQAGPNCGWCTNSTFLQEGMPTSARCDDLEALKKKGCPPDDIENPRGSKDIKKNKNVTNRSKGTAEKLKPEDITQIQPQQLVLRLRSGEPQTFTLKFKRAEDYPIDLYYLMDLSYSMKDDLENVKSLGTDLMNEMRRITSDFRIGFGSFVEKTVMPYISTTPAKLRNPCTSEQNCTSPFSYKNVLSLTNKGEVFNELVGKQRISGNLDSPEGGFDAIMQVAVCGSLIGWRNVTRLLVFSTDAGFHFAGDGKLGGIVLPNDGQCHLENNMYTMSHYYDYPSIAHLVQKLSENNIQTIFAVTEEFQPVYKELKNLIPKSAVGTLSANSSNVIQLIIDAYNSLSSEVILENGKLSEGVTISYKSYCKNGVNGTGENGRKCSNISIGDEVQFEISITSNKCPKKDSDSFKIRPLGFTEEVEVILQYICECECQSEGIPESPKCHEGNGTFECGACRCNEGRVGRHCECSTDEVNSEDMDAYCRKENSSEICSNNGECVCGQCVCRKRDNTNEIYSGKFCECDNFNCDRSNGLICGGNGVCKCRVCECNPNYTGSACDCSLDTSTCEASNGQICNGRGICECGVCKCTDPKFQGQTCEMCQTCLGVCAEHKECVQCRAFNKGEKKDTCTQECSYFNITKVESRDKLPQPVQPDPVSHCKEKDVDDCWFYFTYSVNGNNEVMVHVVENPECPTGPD
Chain of human integrin αVβ6 (P06756 31-992 limits assumed): as the sequence (P06756 31-992 limits assumed) above
Chain of human integrin αVβ6 (P18564 22-707 limits assumed): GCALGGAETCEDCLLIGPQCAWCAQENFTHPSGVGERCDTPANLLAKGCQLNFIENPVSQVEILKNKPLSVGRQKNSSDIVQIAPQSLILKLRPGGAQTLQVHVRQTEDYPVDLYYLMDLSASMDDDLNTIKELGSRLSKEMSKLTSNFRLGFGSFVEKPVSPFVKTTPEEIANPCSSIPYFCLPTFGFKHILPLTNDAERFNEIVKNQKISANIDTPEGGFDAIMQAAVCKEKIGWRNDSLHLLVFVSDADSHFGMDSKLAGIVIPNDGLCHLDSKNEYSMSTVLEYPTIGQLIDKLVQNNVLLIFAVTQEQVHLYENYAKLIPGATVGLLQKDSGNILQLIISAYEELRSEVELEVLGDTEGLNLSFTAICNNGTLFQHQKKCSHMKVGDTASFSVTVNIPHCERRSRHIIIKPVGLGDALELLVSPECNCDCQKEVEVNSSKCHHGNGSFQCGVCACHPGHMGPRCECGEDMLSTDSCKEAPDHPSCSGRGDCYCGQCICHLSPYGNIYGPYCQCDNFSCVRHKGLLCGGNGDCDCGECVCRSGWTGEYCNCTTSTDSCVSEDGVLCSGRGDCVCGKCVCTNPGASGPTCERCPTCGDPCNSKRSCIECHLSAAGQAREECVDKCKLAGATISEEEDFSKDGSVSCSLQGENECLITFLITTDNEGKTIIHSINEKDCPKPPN
Chain of human integrin αVβ8 (P06756 31-992 limits assumed): as the sequence (P06756 31-992 limits assumed) above
Chain of human integrin αVβ8 (P26012 43-684 limits assumed): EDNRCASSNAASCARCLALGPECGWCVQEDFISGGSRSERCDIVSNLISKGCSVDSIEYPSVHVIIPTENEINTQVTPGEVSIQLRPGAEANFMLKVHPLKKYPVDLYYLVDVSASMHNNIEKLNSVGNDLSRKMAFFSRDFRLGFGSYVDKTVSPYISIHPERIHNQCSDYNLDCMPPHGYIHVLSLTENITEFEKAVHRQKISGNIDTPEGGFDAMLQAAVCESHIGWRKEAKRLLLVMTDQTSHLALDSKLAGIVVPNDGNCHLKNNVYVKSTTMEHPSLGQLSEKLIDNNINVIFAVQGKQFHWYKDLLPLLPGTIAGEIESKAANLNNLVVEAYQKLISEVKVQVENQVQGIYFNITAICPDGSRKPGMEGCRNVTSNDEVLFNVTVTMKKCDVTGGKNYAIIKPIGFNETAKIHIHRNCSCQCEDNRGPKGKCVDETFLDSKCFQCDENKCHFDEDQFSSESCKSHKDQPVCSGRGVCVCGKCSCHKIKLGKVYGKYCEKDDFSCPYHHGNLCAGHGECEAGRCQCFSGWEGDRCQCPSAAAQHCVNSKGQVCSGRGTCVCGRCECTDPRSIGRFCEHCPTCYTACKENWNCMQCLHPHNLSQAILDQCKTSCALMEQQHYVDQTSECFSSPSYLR

Turning to `CC(C)(C(=O)N[C@@H](CCOCCCCc1ccc2c(n1)NCCC2)C(=O)O)c1cc(F)cnc1Cl` [Compound 23, N-(2-(2-chloro-5-fluoropyridin-3-yl)-2-methylpropanoyl)-O-(4-(5,6,7,8-tetrahydro-1,8-naphthyridin-2-yl)butyl)-L-homoserine], the IC50 at human integrin αVβ1 is below 50 nM; on human integrin αVβ8, 50 to 150 nM; on human integrin αVβ6, 250 to 500 nM.
On to `O=C(O)[C@H](CCOCCCCc1ccc2c(n1)NCCC2)NC(=O)C1(c2c(Cl)cncc2Cl)CC1` [Compound 24, N-(1-(3,5-dichloropyridin-4-yl)cyclopropane-1-carbonyl)-O-(4-(5,6,7,8-tetrahydro-1,8-naphthyridin-2-yl)butyl)-L-homoserine], for which the IC50 at human integrin αVβ1 is below 50 nM; at human integrin αVβ8 it was below 50 nM; on human integrin αVβ6, 50 to 150 nM.
As for `O=C(O)[C@H](CCOCCCCc1ccc2c(n1)NCCC2)NC(=O)C1(c2ncccc2C(F)(F)F)CC1` [Compound 25, O-(4-(5,6,7,8-tetrahydro-1,8-naphthyridin-2-yl)butyl)-N-(1-(3-(trifluoromethyl)pyridin-2-yl)cyclopropane-1-carbonyl)-L-homoserine], the IC50 on human integrin αVβ1 is below 50 nM; on human integrin αVβ8, below 50 nM; at human integrin αVβ6, at least 500 nM.
`COc1ccc(Cl)c(C2(C(=O)N[C@@H](CCOCCCCc3ccc4c(n3)NCCC4)C(=O)O)CC2)n1` [Compound 26, N-(1-(3-chloro-6-methoxypyridin-2-yl)cyclopropane-1-carbonyl)-O-(4-(5,6,7,8-tetrahydro-1,8-naphthyridin-2-yl)butyl)-L-homoserine]: the figures for the concentration for half-maximal inhibition (IC50) at human integrin αVβ1, at human integrin αVβ8 and at human integrin αVβ6 were below 50 nM, below 50 nM and 250 to 500 nM, respectively.
In the case of `N#Cc1cncc(C2(C(=O)N[C@@H](CCOCCCCc3ccc4c(n3)NCCC4)C(=O)O)CC2)c1` [Compound 27, N-(1-(5-cyanopyridin-3-yl)cyclopropane-1-carbonyl)-O-(4-(5,6,7,8-tetrahydro-1,8-naphthyridin-2-yl)butyl)-L-homoserine], the IC50 at human integrin αVβ1 was below 50 nM; on human integrin αVβ8, 150 to 250 nM; on human integrin αVβ6, at least 500 nM.
`Cc1ncc(F)cc1C1(C(=O)N[C@@H](CCOCCCCc2ccc3c(n2)NCCC3)C(=O)O)CC1` [Compound 28, N-(1-(5-fluoro-2-methylpyridin-3-yl)cyclopropane-1-carbonyl)-O-(4-(5,6,7,8-tetrahydro-1,8-naphthyridin-2-yl)butyl)-L-homoserine]: the half-inhibitory concentration (IC50) on human integrin αVβ1 was below 50 nM; at human integrin αVβ8 it was below 50 nM; at human integrin αVβ6, at least 500 nM.
In the case of `Cc1cccnc1C1(C(=O)N[C@@H](CCOCCCCc2ccc3c(n2)NCCC3)C(=O)O)CC1` [Compound 29, N-(1-(3-methylpyridin-2-yl)cyclopropane-1-carbonyl)-O-(4-(5,6,7,8-tetrahydro-1,8-naphthyridin-2-yl)butyl)-L-homoserine], the values for the IC50 on human integrin αVβ1, on human integrin αVβ8 and at human integrin αVβ6 were 50 to 150 nM, below 50 nM and at least 500 nM, respectively.
The corresponding values for `COc1cccnc1C1(C(=O)N[C@@H](CCOCCCCc2ccc3c(n2)NCCC3)C(=O)O)CC1` [Compound 30, N-(1-(3-methoxypyridin-2-yl)cyclopropane-1-carbonyl)-O-(4-(5,6,7,8-tetrahydro-1,8-naphthyridin-2-yl)butyl)-L-homoserine] are 50 to 150 nM, 50 to 150 nM and at least 500 nM.
Taken in the same sequence, the figures for `O=C(O)[C@H](CCOCCCCc1ccc2c(n1)NCCC2)NC(=O)C1(c2ncnc3ccccc23)CC1` [Compound 31, N-(1-(quinazolin-4-yl)cyclopropane-1-carbonyl)-O-(4-(5,6,7,8-tetrahydro-1,8-naphthyridin-2-yl)butyl)-L-homoserine] were below 50 nM, below 50 nM and at least 500 nM.
The corresponding values for `N#Cc1cccnc1C1(C(=O)N[C@@H](CCOCCCCc2ccc3c(n2)NCCC3)C(=O)O)CC1` [Compound 32, N-(1-(3-cyanopyridin-2-yl)cyclopropane-1-carbonyl)-O-(4-(5,6,7,8-tetrahydro-1,8-naphthyridin-2-yl)butyl)-L-homoserine] are below 50 nM, below 50 nM and at least 500 nM.
On to `COc1ncc(F)cc1C1(C(=O)N[C@@H](CCOCCCCc2ccc3c(n2)NCCC3)C(=O)O)CC1` [Compound 33, N-(1-(5-fluoro-2-methoxypyridin-3-yl)cyclopropane-1-carbonyl)-O-(4-(5,6,7,8-tetrahydro-1,8-naphthyridin-2-yl)butyl)-L-homoserine], for which the IC50 on human integrin αVβ1 is below 50 nM; on human integrin αVβ8, below 50 nM; on human integrin αVβ6, at least 500 nM.
As to `COc1cncc(Cl)c1C1(C(=O)N[C@@H](CCOCCCCc2ccc3c(n2)NCCC3)C(=O)O)CC1` [Compound 34, N-(1-(3-chloro-5-methoxypyridin-4-yl)cyclopropane-1-carbonyl)-O-(4-(5,6,7,8-tetrahydro-1,8-naphthyridin-2-yl)butyl)-L-homoserine], the results for the IC50 on human integrin αVβ1, at human integrin αVβ8 and on human integrin αVβ6 were below 50 nM, below 50 nM and at least 500 nM, respectively.
As for `COc1ncccc1C1(C(=O)N[C@@H](CCOCCCCc2ccc3c(n2)NCCC3)C(=O)O)CC1` [Compound 35, N-(1-(2-methoxypyridin-3-yl)cyclopropane-1-carbonyl)-O-(4-(5,6,7,8-tetrahydro-1,8-naphthyridin-2-yl)butyl)-L-homoserine], the IC50 is 50 to 150 nM at human integrin αVβ1, 50 to 150 nM on human integrin αVβ8 and at least 500 nM at human integrin αVβ6.
`Cc1cnc(C2(C(=O)N[C@@H](CCOCCCCc3ccc4c(n3)NCCC4)C(=O)O)CC2)c(Cl)c1` [Compound 36, N-(1-(3-chloro-5-methylpyridin-2-yl)cyclopropane-1-carbonyl)-O-(4-(5,6,7,8-tetrahydro-1,8-naphthyridin-2-yl)butyl)-L-homoserine]: the IC50 was below 50 nM at human integrin αVβ1, below 50 nM at human integrin αVβ8 and at least 500 nM at human integrin αVβ6.
Consider `N#Cc1cccc(F)c1C1(C(=O)N[C@@H](CCOCCCCc2ccc3c(n2)NCCC3)C(=O)O)CC1` [Compound 37, N-(1-(2-cyano-6-fluorophenyl)cyclopropane-1-carbonyl)-O-(4-(5,6,7,8-tetrahydro-1,8-naphthyridin-2-yl)butyl)-L-homoserine], for which the figures for the 50% inhibitory concentration (IC50) at human integrin αVβ1, at human integrin αVβ8 and on human integrin αVβ6 were below 50 nM, below 50 nM and 250 to 500 nM, respectively.
For the molecule `O=C(O)[C@H](CCOCCCCc1ccc2c(n1)NCCC2)NC(=O)C1(c2ncccc2OC(F)F)CC1` [Compound 38, N-(1-(3-(difluoromethoxy)pyridin-2-yl)cyclopropane-1-carbonyl)-O-(4-(5,6,7,8-tetrahydro-1,8-naphthyridin-2-yl)butyl)-L-homoserine], the values for the IC50 at human integrin αVβ1, on human integrin αVβ8 and at human integrin αVβ6 were below 50 nM, below 50 nM and at least 500 nM, respectively.
As for `O=C(O)[C@H](CCOCCCCc1ccc2c(n1)NCCC2)NC(=O)C1(c2ncccc2C(F)F)CC1` [Compound 40, N-(1-(3-(difluoromethyl)pyridin-2-yl)cyclopropane-1-carbonyl)-O-(4-(5,6,7,8-tetrahydro-1,8-naphthyridin-2-yl)butyl)-L-homoserine], the 50% inhibitory concentration (IC50) at human integrin αVβ1 is below 50 nM; at human integrin αVβ8 it was below 50 nM; on human integrin αVβ6, at least 500 nM.

The term IC50 denotes the concentration that gives 50% inhibition.
